Experimental data reported in patent EP4810038A1, “METHOD FOR TREATING ALK-POSITIVE OR ROS1-POSITIVE NON-SMALL CELL LUNG CANCER” (Shenzhen TargetRx Co., Ltd., priority 2023, dated 2025).
Where “and” joins values, the source holds several entries; their conditions need not be identical. Equal entries are not always repeated. Entries after “also recorded” stand apart in the source; their conditions may differ.

Tests used:
[1] = system: ROS1-positive advanced NSCLC; experiment: Phase I clinical trial, indication expansion phase: efficacy in group B (ROS1-positive, prior crizotinib); format: in vivo, human
Method: The anti-tumor efficacy is evaluated according to RECIST version 1.1. For patients initially evaluated as having a complete response (CR) or partial response (PR), efficacy should be confirmed at least 4 weeks later. In the patients with asymptomatic central nervous system (CNS) metastases, in addition to evaluating 5 extracranial target lesions, up to 5 intracranial target lesions will also be evaluated. The specific indicators are as follows:
"ORR" includes CR and PR, and is defined as the proportion of patients who achieve complete response or partial response.
"IC-ORR" includes CR or PR for confirmed intracranial lesions, and is defined as the proportion of the patients with complete response or partial response of intracranial lesions among the patients with intracranial lesions.
"DCR" is defined as the proportion of the patients who achieve response (PR+CR) and stable disease (SD) after a treatment.
"IC-DCR" is defined as the proportion of the patients who achieve intracranial response (PR+CR), intracranial stable disease (SD), and […] after a treatment among the patients with intracranial lesions.
"DOR" is defined as the time from the first assessment of CR or PR to progressive disease or death, and is only applicable to the patients who achieve response.
"IC-DOR" is defined as the time from the first assessment of intracranial CR or intracranial PR to progressive disease or death, and is only applicable to the patients whose intracranial lesions achieve response.
"TTR" is defined as the time from patient enrollment (first dose of investigational drug) to tumor response (CR/PR), based on the patients with objective response.
"IC-TTR" is defined as the time from patient enrollment (first dose of investigational drug) to intracranial tumor response (IC-CR/PR), based on the patients with intracranial objective response.
"PFS" is defined as the time from the first administration of the investigational drug to progressive disease (PD) or death from any cause, whichever comes first.
In the indication expansion phase, an appropriate administration regimen was determined based on the safety, tolerability, PK and efficacy data from the dose escalation phase and dose expansion phase, and the expansion was performed within the target population.
The result of a pregnancy test conducted ≤7 days prior to the first administration of the investigational drug must be negative for the women of childbearing age.

[2] = system: Ba/F3 (EML4-ALK G1202R) cell line; experiment: Anti-tumor effect in subcutaneous transplanted Ba/F3 (EML4-ALK G1202R) model; format: in vivo, NOD-SCID mice; conditions: for average tumor volume: 16th day after administration
Excerpt: Example 2: The anti-tumor effect in the subcutaneous transplanted animal model of Ba/F3 (EML4-ALK G1202R) cell line in female NOD-SCID mice.
Laboratory animals: NOD-SCID mice, female, 7 to 8 weeks old (the age of mice at tumor cell inoculation), weighing 16.0 to 20.3 g, and 50 mice (with additional 30 surplus mice). […] Housing environment: SPF grade.
Environmental conditions of the housing room of the laboratory animals: All the laboratory animals were housed in individually ventilated cages with constant temperature and constant humidity. The temperature of the housing room was 20 to 26 °C, the humidity was 40 to 70%, the ventilation was 10 to 20 times/hour, and the day/night light/dark cycle was 12h/12h. The animals were continuously provided with cobalt-60 irradiated complete pelleted mouse feed with unlimited free access. The animals drank tap water (used after being autoclaved), which was provided continuously from water bottles, allowing for free access. The cages for raising the mice were polysulfone mice cages, which were autoclaved before use, and measured 325 mm × 210 mm × 180 mm. The bedding was autoclaved corn cobs. Each cage contained 5 animals. […] The laboratory animals were marked with ear tags or ear labels.
Cell culture: Ba/F3 (EML4-ALK G1202R) cells (cell number: ECL-00031) were cultured in RPMI 1640 culture medium containing 10% fetal bovine serum. The Ba/F3 (EML4-ALK G1202R) cells in the exponential growth phase were collected, resuspended in PBS to a suitable concentration, and then subcutaneously inoculated for tumor formation.
Assay method: Female NOD/SCID mice were subcutaneously inoculated with 2×10^6 Ba/F3 (EML4-ALK G1202R) cells on the right side to establish a subcutaneous tumor transplantation model. […] The mice were administered orally via gavage once daily. The efficacy was evaluated based on the relative tumor growth inhibition rate (TGI), and the safety was evaluated based on the changes in the body weight and mortality of the animals.
All the procedures, including drug administration, tumor measurement, weight measurement, etc., were performed in a biosafety cabinet or on a clean bench.
The relative tumor growth rate (T/C%) was the percentage value of the relative tumor volume between a treatment group and the control group at a certain time point, or the percentage value of the tumor weight between a treatment group and the control group. […]

[3] = intracranial measurable lesions, Group B (n=6)

[2H]C([2H])([2H])n1nc2c(c1C#N)-c1cnc(N)c(c1)O[C@H](C)c1cc(F)ccc1C(=O)N(C)C2 [compound A, (10R)-7-amino-12-fluoro-2-(methyl-d3)-10,16-dimethyl-15-oxo-10,15,16,17-tetrahydro-2H-8,4-(metheno)pyrazolo[4,3-h][2,5,11]benzoxadiazacyclotetradecine-3-carbonitrile]
ORR ([1]; 24 ROS1-positive NSCLC patients previously treated with crizotinib): 29.2% | intracranial ORR ([1]; ROS1-positive, six patients with measurable CNS lesions at baseline): 50.0% | median PFS ([1]; group B, FAS, as of April 17, 2024): 8.36 months | BOR CR [1, 3]: 0 n (%) | BOR NE [1, 3]: 0 n (%) | BOR PD [1, 3]: 1 (16.7) n (%) | BOR PR [1, 3]: 3 n (%) and 3 (50.0) n (%) | BOR SD [1, 3]: 2 (33.3) n (%) | Confirmed ORR (95% CI) [1, 3]: 3 (50.0) (11.8, 88.2) n (%) | DCR (95% CI) [1, 3]: 5 (83.3) (35.9, 99.6) n (%) | Median DOR (95% CI) [1, 3]: not reached | Median TTR (range) [1, 3]: 1.41 months and 1.41 (1.35, 1.41) months | BOR CR ([1]; systemic, Group B (n=24)): 0 n (%) | BOR NE ([1]; systemic, Group B (n=24)): 0 n (%) | BOR PD ([1]; systemic, Group B (n=24)): 7 (29.2) n (%) | BOR PR ([1]; systemic, Group B (n=24)): 7 (29.2) n (%) | BOR SD ([1]; systemic, Group B (n=24)): 10 (41.7) n (%) | Confirmed ORR (95% CI) ([1]; systemic, Group B (n=24)): 7 (29.2) (12.6,51.1) n (%) | DCR (95% CI) ([1]; systemic, Group B (n=24)): 17 (70.8) (48.9, 87.4) n (%) | Median DOR (95% CI) ([1]; systemic, Group B (n=24)): not reached; also recorded: NR (4.370, -) | Median TTR (range) ([1]; systemic, Group B (n=24)): 1.41 months and 1.41 (1.31, 7.03) months | average tumor volume ([2]; 1.5 mg/kg p.o. once daily): 2139.18 mm^3 | average tumor volume ([2]; 5 mg/kg p.o. once daily): 576.11 mm^3 | average tumor volume ([2]; 15 mg/kg p.o. once daily): 0.25 mm^3 | tumor-bearing mice with tumor volume reduced to 0 ([2]; 15 mg/kg, end of the assay): 9/10
